# Measured values: patent US20210386721A1, “SUBSTITUTED PHENYLPROPENYL PYRIDINE DERIVATIVES, THEIR PREPARATION AND PHARMACEUTICAL APPLICATIONS” (SHANGHAI HAIYAN PHARMACEUTICAL TECHNOLOGY CO., LTD., priority 2019, published 2021)
# Legend:
# [1] = test system: Jurkat T(PD1 Luc-)/CHOK1(PDL-1); test: Jurkat T(PD1 Luc-)/CHOK1(PDL-1) cell experiment (luciferase reporter); assay type: cell-based; conditions: CHO/PD-L1-OKT3 cells co-cultured with Jurkat/PD1-NFAT-Luc cells for 6 hours; Bio-Glo luciferase signal
# In short: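 CHO/PD-L1-OKT3 cells plated 24 h at 37 °C, then compound in DMSO (1 uM final) added together with Jurkat/PD1-NFAT-Luc cells and co-cultured 6 h. Luciferase signal read with Bio-Glo; EC50 by non-linear regression.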
# PD-1/PD-L1 = target: T1, PD-1/PD-L1 (Homo sapiens, UniProt Q9NZQ7); test: PD-1/PD-L1 binding assay (HTRF, PPI-HTRF); conditions: HTRF PD1/PD-L1 binding assay kit; 10 nM Tag1-PD-L1; 25° C.
# T1 construct: purchased Cisbio 63ADK000CPDPEB
# T1 sequence (Q9NZQ7 19-238 limits assumed): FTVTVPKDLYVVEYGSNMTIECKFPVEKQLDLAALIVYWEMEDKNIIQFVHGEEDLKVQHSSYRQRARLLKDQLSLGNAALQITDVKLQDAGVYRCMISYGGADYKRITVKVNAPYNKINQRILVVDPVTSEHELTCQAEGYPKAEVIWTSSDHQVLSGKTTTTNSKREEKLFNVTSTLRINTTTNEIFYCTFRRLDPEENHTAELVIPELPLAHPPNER
# In short: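 HTRF binding assay: compound was mixed with tagged proteins at final concentrations of 10 nM Tag1-PD-L1 and 2 nM PD1 for 15 min at 25 °C. Anti-Tag1-Eu³⁺ and anti-Tag2-XL665 antibodies were then added for 16 h at 25 °C. IC50 was derived from the 665/620 nm emission ratio.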
Compound,IC50 (PD-1/PD-L1),EC50 [1]
"COc1cc(/C=C/c2cccc(-c3cccc(NC(=O)c4nc5c(n4C)CCN(C(C)C)C5)c3C)c2C)c(C(F)(F)F)cc1CN1CC[C@@H](C(=O)O)C1 [Z-134, (R,E)-1-(4-(2-(3′-(5-isopropyl-1-methyl-4,5,6,7-tetrahydro-1H-imidazo[4,5-c]pyridine-2-carboxamido)-2,2′-dimethyl-[1,1′-biphenyl]-3-yl)vinyl)-2-methoxy-5-(trifluoromethyl)benzyl)pyrrolidine-3-carboxylic Acid]",1 nM,91 nM
Cc1cc(/C=C/c2cccc(-c3cccc(NC(=O)c4ccc(CN5CC[C@@H](O)C5)cn4)c3C)c2C)c(Cl)cc1CN1CC[C@@H](C(=O)O)C1 [Z-86],1 nM,38 nM
COc1cc(/C=C/c2cccc(-c3cccc(-c4nc5cc(CN6CC[C@@H](C(=O)O)C6)cc(C#N)c5o4)c3C)c2C)c(C(F)(F)F)cc1CN1CC[C@H](O)C1 [Z-29],2 nM,109 nM
"COc1cc(/C=C/c2cccc(-c3cccc(-c4ccc(CNC[C@@H]5CCC(=O)N5)c(OC)n4)c3C)c2C)c(C(F)(F)F)cc1CN1CC[C@@H](C(=O)O)C1 [Z-54, (R)-1-(2-methoxy-4-((E)-2-(3′-(6-methoxy-5-(((((S)-5-oxopyrrolidin-2-yl)methyl)amino)methyl)pyridin-2-yl)-2,2′-dimethyl-[1,1′-biphenyl]-3-yl)vinyl)-5-(trifluoromethyl)benzyl)pyrrolidine-3-carboxylic Acid]",1 nM,149 nM
COc1cc(/C=C/c2ccnc(-c3cccc(-c4nc5cc(CN6CC[C@@H](O)C6)cc(C#N)c5o4)c3C)c2C#N)c(C(F)(F)F)cc1CN1CC[C@@H](C(=O)O)C1 [Z-49],1 nM,78 nM
COc1cc(/C=C/c2cccc(-c3cccc(NC(=O)c4ccc(CN5CC[C@@H](O)C5)cn4)c3Cl)c2C#N)c(C(F)(F)F)cc1CN1CC[C@@H](C(=O)O)C1 [Z-95],< 1 nM,4 nM
"Cc1cc(/C=C/c2nccc(-c3cccc(NC(=O)c4ccc(CNCCO)cn4)c3C)c2C#N)c(Cl)cc1CN1CCCC[C@H]1C(=O)O [Z-2, (S, E)-1-(5-chloro-4-(2-(3-cyano-4-(3-(5-(((2-hydroxyethyl)amino)methyl)picolinamido)-2-methylphenyl)pyridin-2-yl)vinyl)-2-methylbenzyl)piperidine-2-carboxylic Acid]",1 nM,79 nM
COc1cc(/C=C/c2cccc(-c3cccc(NC(=O)c4ccc(CN5CC[C@@H](O)C5)cn4)c3C(F)(F)F)c2C#N)c(C(F)(F)F)cc1CN1CC[C@@H](C(=O)O)C1 [Z-98],2 nM,174 nM

# The next lines start with results.
IC50 (PD-1/PD-L1),Compound,EC50 [1]
< 1 nM,COC(=O)C[C@H](O)CNCc1cc(C(F)(F)F)c(/C=C/c2cccc(-c3cccc(NC(=O)c4cc(OC)c(CN5CC[C@@H](O)C5)cn4)c3C)c2C)cc1OC [Z-128],39 nM
1 nM,COc1cc(/C=C/c2cccc(-c3cccc(NC(=O)c4ccc(CN5CC[C@@H](O)C5)cn4)c3C)c2Cl)c(C(F)(F)F)cc1CN1CC[C@@H](C(=O)O)C1 [Z-85],34 nM
1 nM,COc1cc(/C=C/c2cccc(-c3cccc(NC(=O)c4ccc(CN5CC[C@@H](O)C5)cn4)c3C#N)c2C)c(C(F)(F)F)cc1CN1CC[C@@H](C(=O)O)C1 [Z-105],14 nM
1 nM,COc1cc(C(=O)Nc2cccc(-c3cccc(/C=C/c4cc(OC)c(CN5CC[C@@H](C(=O)O)C5)cc4C(F)(F)F)c3C)c2C)ncc1CN1CC[C@@H](O)C1 [Z-117],13 nM
≤ 1 nM,COc1cc(C(=O)Nc2cccc(-c3cccc(/C=C/c4cc(OC)c(CN5CC[C@@H](O)C5)cc4C(F)(F)F)c3C)c2C)ncc1CN1CC[C@@H](O)C1 [Z-135],44 nM
1 nM,COc1cc(/C=C/c2cccc(-c3cccc(NC(=O)c4ccc(CN5CC[C@@H](O)C5)cn4)c3C)c2C#N)c(C(F)(F)F)cc1CN1CC[C@@H](C(=O)O)C1 [Z-94],10 nM
